# Test results as given in patent US11917959B2, “Multi-ear system to enhance monocot plant yield” (Monsanto Technology LLC, priority 2015, dated 2024).
# Experiments:
# [1] = tested on: DH0 maize plants, Germplasm A; test: Doubling efficiency after co-dominant ear induction (Example 2); type: in vivo; conditions: for DE04 doubling efficiency / DE20 doubling efficiency / DE30 doubling efficiency / DE50 doubling efficiency: Germplasm A DH0, 60 mL 2.5% PBZ
# Excerpt: An F1 hybrid-derived haploid induction population derived from female inbred maize plant Germplasm A was germinated in soil and tended in standard greenhouse maize growing conditions for approximately seven days. Seedlings were then subjected to a bulk colchicine-based chromosome doubling treatment as described above. Following treatment, seedlings were transplanted into pots and tended in a greenhouse at standard greenhouse maize growing conditions to recover.
# Twenty-nine days after the colchicine doubling treatment, 77 of the DH0 seedlings were subjected to a co-dominant ear induction treatment comprising the addition of 60 mL of 2.5% PBZ (v/v) in water, which was poured into the soil surrounding the roots of each plant. The seedlings were then tended in standard greenhouse maize growing conditions until they flowered, at which time each plant that produced pollen was self-pollinated. After approximately 3-4 weeks, ears were harvested and the kernels (DH1 seeds) that formed on the treated DH0 plants were counted to determine doubling efficiencies.
# Doubling efficiencies (DE) were calculated under four different constraints, depending on the minimum number of kernels an ear had to produce in order to even be included in the calculation. DE04 represents the portion of all the doubled DH0 plants that produced a total of at least four seeds when all ears were considered. DE20 represents the portion of all the doubled DH0 plants that produced a total of at least 20 kernels when all ears were considered. Similarly, DE30 represents the portion of doubled DH0 plants that produced a total of at least 30 kernels when all ears were considered, and DE50 represents the portion of doubled DH0 plants that produced a total of at least 50 kernels when all ears were considered.
# Furthermore, the above doubling efficiencies were calculated once by considering only the kernels that formed on the primary ear of each plant (Ear1), once by considering only the kernels that formed on the primary and secondary ear of each plant (Ear2), once by considering only the kernels that formed on the primary, secondary, and tertiary ear of each plant (Ear3), and finally by considering all the kernels that formed on all the ears of each plant (Earall).
# [2] = tested on: eleven corn inbred germplasm; test: Chemistry treatment of eleven corn inbred germplasm at V3 or V8 (Example 12); type: in vivo; conditions: for Avg Kernels from Main Stem / Avg Total Kernels Per Plant: auto-self
# Excerpt: Seeds for eleven corn inbred germplasm was planted in six-packs and grown in greenhouses under standard conditions as outlined in Example 1. At thirteen days after germination the seedlings for the eleven different germplasm (20 plants per germplasm) were transplanted into standard pots. […]
# [3] = Ear 2 (primary and secondary ear)
# [4] = Ear 3 (primary, secondary, tertiary ear)
# [5] = pedigree A, 3HV: 14DAP, 4 mg/plant, 2% 50 mL
# [6] = pedigree A, 3LV: 14DAP, 4 mg/plant, 6.25% 16 mL
# [7] = pedigree A, 8HV: 28DAP, 8 mg/plant, 2% 100 mL
# [8] = pedigree A, 8LV: 28DAP, 8 mg/plant, 13% 16 mL
# [9] = pedigree B, 3HV: 14DAP, 6 mg/plant, 3% 50 mL
# [10] = pedigree B, 3LV: 14DAP, 6 mg/plant, 9.38% 16 mL
# [11] = pedigree B, 8HV: 28DAP, 16 mg/plant, 4% 100 mL
# [12] = pedigree B, 8LV: 28DAP, 16 mg/plant, 25% 16 mL
# [13] = pedigree C, 3LV: 14DAP, 6 mg/plant, 9.38% 16 mL
# [14] = pedigree C, 8HV: 28DAP, 16 mg/plant, 4% 100 mL
# [15] = pedigree C, 8LV: 28DAP, 16 mg/plant, 25% 16 mL
# [16] = pedigree D, 3HV: 14DAP, 6 mg/plant, 3% 50 mL
# [17] = pedigree D, 3LV: 14DAP, 6 mg/plant, 9.38% 16 mL
# [18] = pedigree D, 8HV: 28DAP, 16 mg/plant, 4% 100 mL
# [19] = pedigree D, 8LV: 28DAP, 16 mg/plant, 25% 16 mL
# [20] = pedigree E, 3HV: 14DAP, 6 mg/plant, 3% 50 mL
# [21] = pedigree E, 3LV: 14DAP, 6 mg/plant, 9.38% 16 mL
# [22] = pedigree E, 8HV: 28DAP, 16 mg/plant, 4% 100 mL
# [23] = pedigree E, 8LV: 28DAP, 16 mg/plant, 25% 16 mL
# [24] = pedigree F, 3HV: 14DAP, 6 mg/plant, 3% 50 mL
# [25] = pedigree F, 3LV: 14DAP, 6 mg/plant, 9.38% 16 mL
# [26] = pedigree F, 8HV: 28DAP, 16 mg/plant, 4% 100 mL
# [27] = pedigree F, 8LV: 28DAP, 16 mg/plant, 25% 16 mL
# [28] = pedigree G, 3HV: 14DAP, 6 mg/plant, 3% 50 mL
# [29] = pedigree G, 3LV: 14DAP, 6 mg/plant, 9.38% 16 mL
# [30] = pedigree G, 8HV: 28DAP, 16 mg/plant, 4% 100 mL
# [31] = pedigree G, 8LV: 28DAP, 16 mg/plant, 25% 16 mL
# [32] = pedigree H, 3HV: 14DAP, 6 mg/plant, 3% 50 mL
# [33] = pedigree H, 3LV: 14DAP, 6 mg/plant, 9.38% 16 mL
# [34] = pedigree H, 8HV: 28DAP, 16 mg/plant, 4% 100 mL
# [35] = pedigree H, 8LV: 28DAP, 16 mg/plant, 25% 16 mL
# [36] = pedigree I, 3HV: 14DAP, 10 mg/plant, 5% 50 mL
# [37] = pedigree I, 3LV: 14DAP, 10 mg/plant, 15.63% 16 mL
# [38] = pedigree I, 8HV: 28DAP, 32 mg/plant, 8% 100 mL
# [39] = pedigree I, 8LV: 28DAP, 32 mg/plant, 50% 16 mL
# [40] = pedigree J, 3HV: 14DAP, 10 mg/plant, 5% 50 mL
# [41] = pedigree J, 3LV: 14DAP, 10 mg/plant, 15.63% 16 mL
# [42] = pedigree J, 8HV: 28DAP, 32 mg/plant, 8% 100 mL
# [43] = pedigree J, 8LV: 28DAP, 32 mg/plant, 50% 16 mL
# [44] = pedigree K, 3HV: 14DAP, 6 mg/plant, 3% 50 mL
# [45] = pedigree K, 8HV: 28DAP, 16 mg/plant, 4% 100 mL
# [46] = pedigree K, 8LV: 28DAP, 16 mg/plant, 25% 16 mL
# [47] = pedigree K, K3LV: 14DAP, 6 mg/plant, 9.38% 16 mL
compound,measurement,setting,value
"CC(C)(C)[C@@H](O)[C@@H](Cc1ccc(Cl)cc1)n1cncn1 (relative stereo) [PBZ, (±)-(R*, R*)-beta-((4-chlorophenyl)methyl)-alpha-(1,1,-dimethylethyl)-1H-1,2,4,-triazole-1-ethanol]",DE04 doubling efficiency,[1]; Ear 1 only,71%
same,DE20 doubling efficiency,[1]; Ear 1 only,37%
same,DE30 doubling efficiency,[1]; Ear 1 only,26%
same,DE50 doubling efficiency,[1]; Ear 1 only,23%
same,reduction in DE between DE04 and DE20,[1]; Ear2,22%
same,DE04 doubling efficiency,[1]; [3],76%
same,DE20 doubling efficiency,[1]; [3],59%
same,DE30 doubling efficiency,[1]; [3],47%
same,DE50 doubling efficiency,[1]; [3],36%
same,DE04 doubling efficiency,[1]; [4],76%
same,DE20 doubling efficiency,[1]; [4],65%
same,DE30 doubling efficiency,[1]; [4],58%
same,DE50 doubling efficiency,[1]; [4],50%
same,DE04 doubling efficiency,[1]; Ear All,76%
same,DE20 doubling efficiency,[1]; Ear All,68%
same,DE30 doubling efficiency,[1]; Ear All,58%
same,DE50 doubling efficiency,[1]; Ear All,52%
same,kernel number per plant,"[2]; diverse germplasm treated at V3 (14DAP) or V8 (28DAP), FIG. 11",average increase in kernel number per plant
same,"decrease in height, on average","[2]; every germplasm tested, FIG. 10",30-50%
same,Avg Kernels from Main Stem,[2]; [5],330.50
same,Avg Total Kernels Per Plant,[2]; [5],351.00
same,Avg Kernels from Main Stem,[2]; [6],352.25
same,Avg Total Kernels Per Plant,[2]; [6],515.75
same,Avg Kernels from Main Stem,[2]; [7],337.00
same,Avg Total Kernels Per Plant,[2]; [7],345.75
same,Avg Kernels from Main Stem,[2]; [8],366.50
same,Avg Total Kernels Per Plant,[2]; [8],413.00
same,Avg Kernels from Main Stem,[2]; [9],204.00
same,Avg Total Kernels Per Plant,[2]; [9],215.50
same,Avg Kernels from Main Stem,[2]; [10],260.25
same,Avg Total Kernels Per Plant,[2]; [10],291.25
same,Avg Kernels from Main Stem,[2]; [11],567.00
same,Avg Total Kernels Per Plant,[2]; [11],567.25
same,Avg Kernels from Main Stem,[2]; [12],427.00
same,Avg Total Kernels Per Plant,[2]; [12],432.75
same,Avg Kernels from Main Stem,[2]; [13],291.50
same,Avg Total Kernels Per Plant,[2]; [13],611.25
same,Avg Kernels from Main Stem,[2]; [14],148.00
same,Avg Total Kernels Per Plant,[2]; [14],255.25
same,Avg Kernels from Main Stem,[2]; [15],325.75
same,Avg Total Kernels Per Plant,[2]; [15],513.25
same,Avg Kernels from Main Stem,[2]; [16],616.75
same,Avg Total Kernels Per Plant,[2]; [16],766.25
same,Avg Kernels from Main Stem,[2]; [17],631.25
same,Avg Total Kernels Per Plant,[2]; [17],839.25
same,Avg Kernels from Main Stem,[2]; [18],581.75
same,Avg Total Kernels Per Plant,[2]; [18],646.75
same,Avg Kernels from Main Stem,[2]; [19],727.75
same,Avg Total Kernels Per Plant,[2]; [19],745.50
same,Avg Kernels from Main Stem,[2]; [20],334.50
same,Avg Total Kernels Per Plant,[2]; [20],405.25
same,Avg Kernels from Main Stem,[2]; [21],291.25
same,Avg Total Kernels Per Plant,[2]; [21],422.50
same,Avg Kernels from Main Stem,[2]; [22],532.50
same,Avg Total Kernels Per Plant,[2]; [22],678.25
same,Avg Kernels from Main Stem,[2]; [23],583.25
same,Avg Total Kernels Per Plant,[2]; [23],772.75
same,Avg Kernels from Main Stem,[2]; [24],414.75
same,Avg Total Kernels Per Plant,[2]; [24],1078.75
same,Avg Kernels from Main Stem,[2]; [25],392.00
same,Avg Total Kernels Per Plant,[2]; [25],777.75
same,Avg Kernels from Main Stem,[2]; [26],301.00
same,Avg Total Kernels Per Plant,[2]; [26],442.25
same,Avg Kernels from Main Stem,[2]; [27],461.00
same,Avg Total Kernels Per Plant,[2]; [27],661.00
same,Avg Kernels from Main Stem,[2]; [28],381.50
same,Avg Total Kernels Per Plant,[2]; [28],905.50
same,Avg Kernels from Main Stem,[2]; [29],485.50
same,Avg Total Kernels Per Plant,[2]; [29],1033.50
same,Avg Kernels from Main Stem,[2]; [30],284.50
same,Avg Total Kernels Per Plant,[2]; [30],567.00
same,Avg Kernels from Main Stem,[2]; [31],542.75
same,Avg Total Kernels Per Plant,[2]; [31],728.25
same,Avg Kernels from Main Stem,[2]; [32],77.50
same,Avg Total Kernels Per Plant,[2]; [32],80.00
same,Avg Kernels from Main Stem,[2]; [33],73.25
same,Avg Total Kernels Per Plant,[2]; [33],83.00
same,Avg Kernels from Main Stem,[2]; [34],388.50
same,Avg Total Kernels Per Plant,[2]; [34],520.00
same,Avg Kernels from Main Stem,[2]; [35],439.75
same,Avg Total Kernels Per Plant,[2]; [35],564.75
same,Avg Kernels from Main Stem,[2]; [36],172.00
same,Avg Total Kernels Per Plant,[2]; [36],218.75
same,Avg Kernels from Main Stem,[2]; [37],175.00
same,Avg Total Kernels Per Plant,[2]; [37],191.25
same,Avg Kernels from Main Stem,[2]; [38],508.75
same,Avg Total Kernels Per Plant,[2]; [38],550.50
same,Avg Kernels from Main Stem,[2]; [39],448.25
same,Avg Total Kernels Per Plant,[2]; [39],448.25
same,Avg Kernels from Main Stem,[2]; [40],587.00
same,Avg Total Kernels Per Plant,[2]; [40],1005.75
same,Avg Kernels from Main Stem,[2]; [41],602.75
same,Avg Total Kernels Per Plant,[2]; [41],953.25
same,Avg Kernels from Main Stem,[2]; [42],361.50
same,Avg Total Kernels Per Plant,[2]; [42],398.75
same,Avg Kernels from Main Stem,[2]; [43],280.50
same,Avg Total Kernels Per Plant,[2]; [43],298.75
same,Avg Kernels from Main Stem,[2]; [44],317.75
same,Avg Total Kernels Per Plant,[2]; [44],365.00
same,Avg Kernels from Main Stem,[2]; [45],446.75
same,Avg Total Kernels Per Plant,[2]; [45],487.00
same,Avg Kernels from Main Stem,[2]; [46],495.00
same,Avg Total Kernels Per Plant,[2]; [46],539.75
same,Avg Kernels from Main Stem,[2]; [47],418.75
same,Avg Total Kernels Per Plant,[2]; [47],437.75
